The text below walks through data of paper PMC6514705, “QuinoxalineTacrine QT78, a Cholinesterase Inhibitor as a Potential Ligand for Alzheimer’s Disease Therapy” (Molecules, 2019).

One data set concerns the target T1, human recombinant AChE (Homo sapiens, UniProt P22303).
T1 construct: purchased Sigma-Aldrich, Milan, Italy
In words: Inhibition of human AChE (Ellman's assay). In kind it is biochemical. The note with it: 20 min preincubation at 37 °C, pH 8.0, read-out: IC50 (hAChE). The procedure:
(§1) Next, the in vitro inhibition of human acetylcholinesterase (hAChE) and human butyrylcholinesterase (hBuChE) was assessed according to the method of Ellman
(§2) The ability of QT78 to inhibit human ChE activity was assessed using Ellman’s assay. A Jasco V-530 double beam spectrophotometer connected to a HAAKE DC30 thermostating system (Thermo Haake, Vreden, Germany) was used. […] Either 50 µL of a solution of the tested compound at increasing concentrations or 50 µL of solvent (methanol or water) were added to the assay solution and preincubated at 37 °C with the enzyme for 20 min before the addition of substrate. […] In parallel, blanks containing all components except the enzyme were prepared to account for the non-enzymatic hydrolysis of the substrate. The reaction rates were compared and the percentage of inhibition due to the presence of test compound was calculated. Each concentration was analyzed in duplicate/triplicate. The percentage of inhibition of the enzyme activity due to the presence of inhibitor was calculated. Inhibition plots were obtained for each compound by plotting the percentage of inhibition versus the logarithm of inhibitor concentration in the assay solution. The linear regression parameters were determined for each curve and the IC50 extrapolated.
In general terms: In Ellman's method for cholinesterases, released thiocholine reacts with DTNB.

A further data set deals with T2, BuChE from human serum (Homo sapiens, UniProt P06276).
T2 construct: BuChE from human serum (Sigma-Aldrich, Milan, Italy); purchased Sigma-Aldrich, Milan, Italy; host or cells: human serum
T2 sequence (P06276 29-602): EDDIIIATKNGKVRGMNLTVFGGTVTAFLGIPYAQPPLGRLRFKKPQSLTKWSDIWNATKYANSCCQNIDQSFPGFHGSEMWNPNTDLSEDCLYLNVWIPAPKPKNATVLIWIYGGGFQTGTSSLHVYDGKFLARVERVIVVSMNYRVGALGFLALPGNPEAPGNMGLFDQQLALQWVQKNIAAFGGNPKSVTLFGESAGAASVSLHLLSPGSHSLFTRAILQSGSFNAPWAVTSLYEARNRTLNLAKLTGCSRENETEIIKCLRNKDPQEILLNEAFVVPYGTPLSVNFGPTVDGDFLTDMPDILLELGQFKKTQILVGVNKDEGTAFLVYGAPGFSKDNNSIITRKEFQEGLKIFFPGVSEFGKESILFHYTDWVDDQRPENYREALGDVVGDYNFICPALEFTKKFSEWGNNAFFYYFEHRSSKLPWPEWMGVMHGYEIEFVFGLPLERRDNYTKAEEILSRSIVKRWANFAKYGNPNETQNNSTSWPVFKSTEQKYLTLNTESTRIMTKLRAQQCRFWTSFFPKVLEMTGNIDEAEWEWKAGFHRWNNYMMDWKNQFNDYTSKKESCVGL
In words: Inhibition of human BuChE (Ellman's assay). Type of data set: biochemical. The note with it: 20 min preincubation at 37 °C, pH 8.0, read-out: IC50 (hBuChE). Here is the method:
as §1, §2

The next data set in a line: in vitro. Type of data set: cell-based. The settings on record: human. Here is the method:
The human hepatoma HepG2 cell line was kindly provided by the IdiPAZ Institute for Health Research (Madrid, Spain). They were cultured in Eagle´s minimum essential medium (EMEM) supplemented with 15 nonessential amino acids, 1 mM sodium pyruvate, 10 % heat-inactivated FBS, 100 units/mL penicillin, and 100 µg/mL streptomycin (reagents from Invitrogen, Madrid, Spain). […] Culture media were changed every 2 days. […] For assays, cells were subcultured in 96-well plates at a seeding density of 1 × 10^5 cells per well.
MTT reduction was performed as described for both HepG2 and SH-SY5Y human cell lines. Briefly, 50 µL of the MTT labeling reagent, at a final concentration of 0.5 mg/mL, was added. […] Colorimetric determination of MTT reduction was measured in an ELISA microplate reader at 540 nm. Non-treated cells were considered controls and were taken as 100% viability.

For data set [1], the system named is SH-SY5Y cells. In words: Neuroprotection in SH-SY5Y cells against rotenone/oligomycin A (R/O) toxicity (MTT). Type of data set: cell-based, human. The note with it: 1 μM compound, compared with lower concentrations. The procedure: (§3) Finally, following the protocols described in the Supporting Information, we evaluated the neuroprotective profile of QT78 against two toxic insults related to neurodegeneration, using melatonin (10 nM) as a reference compound: (a) a model of reactive oxygen species (ROS) generation, based on the cocktail of the mitochondrial respiratory chain blockers rotenone and oligomycin A (R/O), and (b) hyperphosphorylation of tau protein using okadaic acid (OA), a well-known protein phosphatase inhibitor.
(§4) Human SH-SY5Y cells were maintained in a 1:1 mixture of Nutrient Mixture F-12 and Eagle´s minimum essential medium (EMEM) supplemented with 15 nonessential amino acids, 1 mM sodium pyruvate, 10% heat-inactivated FBS, 100 units/mL penicillin, and 100 μg/mL streptomycin. Cultures were seeded into flasks containing supplemented medium and maintained at 37 °C in a humidified atmosphere of 5% CO2 and 95% air. For assays, SH-SY5Y cells were sub-cultured in 96-well plates at a seeding density of 5 × 10^4 cells per well for 2 days. […]
(§5) MTT reduction was performed as described for both HepG2 and SH-SY5Y human cell lines. […] Colorimetric determination of MTT reduction was measured in an ELISA microplate reader at 540 nm. […]

Data set [2] deals with SH-SY5Y cells. The data set can be described thus: Neuroprotection in SH-SY5Y cells against okadaic acid (OA) toxicity (MTT). The settings on record: 1 μM compound, compared with lower concentrations. In kind it is cell-based, human. Here is the method:
as §3, §4, §5

The IC50 is the concentration that gives 50% inhibition. The viability is a per cent measure of how many cells are alive, often set against a control. Higher therefore signals less harm to the cells.

T1 sequence (P22303 32-614): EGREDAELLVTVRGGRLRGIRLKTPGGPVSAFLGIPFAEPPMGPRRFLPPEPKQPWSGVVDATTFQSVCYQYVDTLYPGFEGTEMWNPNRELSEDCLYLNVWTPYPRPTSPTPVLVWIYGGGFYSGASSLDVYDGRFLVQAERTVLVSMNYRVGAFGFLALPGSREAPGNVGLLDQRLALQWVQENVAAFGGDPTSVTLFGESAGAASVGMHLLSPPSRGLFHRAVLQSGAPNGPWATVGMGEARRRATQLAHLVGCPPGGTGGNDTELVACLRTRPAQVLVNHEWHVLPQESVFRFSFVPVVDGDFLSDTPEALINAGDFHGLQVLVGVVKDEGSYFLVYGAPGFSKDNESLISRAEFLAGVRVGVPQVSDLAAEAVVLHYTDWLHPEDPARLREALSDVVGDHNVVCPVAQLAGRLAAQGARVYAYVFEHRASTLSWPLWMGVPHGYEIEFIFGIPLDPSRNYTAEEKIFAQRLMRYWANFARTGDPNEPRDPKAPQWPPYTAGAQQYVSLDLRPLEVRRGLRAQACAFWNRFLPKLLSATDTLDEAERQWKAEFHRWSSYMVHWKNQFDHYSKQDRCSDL

`Nc1c2c(nc3nc4ccccc4nc13)CCCC2` [QT78, 1,2,3,4-tetrahydroquinolino[2,3-b]quinoxalin-12-amine]: on human recombinant AChE, the IC50 was 22 ± 1.3 µM. Also, the half-inhibitory concentration (IC50) on BuChE from human serum came out at 6.79 ± 0.33 µM. In addition, in “in vitro”, the viability at 24 h, 1 µM amounted to 96.7 ± 2.14%; the viability at 24 h, 3 µM came to 97.6 ± 2.2%; the viability at 24 h, 10 µM was 97.1 ± 1.64%; the viability at 24 h, 30 µM was determined as 95.1 ± 1.5%. In the data set “in vitro”, this compound gave a viability at 24 h, 100 µM of 90.5 ± 1.86%; a viability at 24 h, 300 µM of 78.1 ± 0.94%; a viability at 24 h, 1000 µM of 68.3 ± 2.92%. Moreover, the “protective capacity against R/O” value in the data set on SH-SY5Y cells [1] was “the protective capacity decreased”. Moreover, the “protective capacity against OA” value in the data set with SH-SY5Y cells [2] is given as “the protective capacity decreased”.
